The values that follow come from patent US20230383291A1, “PEPTIDE-BASED TRANSDUCTION OF NON-ANIONIC POLYNUCLEOTIDE ANALOGS FOR GENE EXPRESSION MODULATION” (FELDAN BIO INC., priority 2020, published 2023).

Common to all, as to type: cell-based, Human
Series [1] has as its system HeLa cells. Kind of series: PMO, PNA and siRNA transduction in HeLa cells with FSD250. The note with it: all conditions tested, FIG. 7B. As to the method: Phosphorodiamidate morpholino oligomers labeled with the fluorophore FITC (PMO-FITC) were prepared at 1 mM in sterile water. HeLa cells were plated (20 000 cells/well) in a 96 well-dish the day prior to the experiment. Each delivery mix comprising a synthetic peptide shuttle agent (7.5, 10 or 20 μM) and a PMO-FITC (6 μM) was prepared and completed to 50 μL with RPMI-1640 media. Cells were washed once with PBS and the shuttle agent/PMO-FITC or PMO-FITC alone added on cells for five minutes. Then, 100 μL DMEM containing 10% FBS was added to the mix and removed. Cells were washed once with PBS and incubated in DMEM containing 10% FBS. Cells were analyzed after a 2-hour incubation by flow cytometry.
HeLa cells were transduced with 10 μM of PMO-FITC or fluorescently-labeled Peptide Nucleic Acid (PNA) (PNA TelC-Alexa 488; cat. no. F1004; PNA BIO Inc.) as generally described in the transduction protocol described in Example 1 with a few modifications. The shuttle peptide used was FSD250 (5 μM) and cells were contacted with the cargo and shuttle agent for two minutes, and cells were analyzed after a 1-hour incubation by flow cytometry.

A short description of a further series: in vitro. The following applies: human, RH-30 cells. As for the experimental part: (§1) Although naked DNA/RNA cargoes are shown to themselves be poor cargoes of synthetic peptide shuttle agents (Examples 3 and 9), the present Example evaluates their potential dominant negative effect in trans on shuttle agent-mediated transduction of PMO cargoes. Briefly, RH-30 cells (150,000 cells/well in 24-well dish) were contacted with a delivery mix of 6 μM of a PMO-FITC and of 5 μM of the synthetic peptide shuttle agent FSD250 for 2 minutes in RPMI, in the presence of increasing amounts of a DNA oligonucleotide or an sgRNA spiked in medium. Cells were then washed, incubated in growth medium and then collected for analysis by flow cytometry after 1 h. […] In all conditions tested, cell viability remained above 75%.
(§2) The present Example compares the PMO transduction activity of a prototypical CPD-comprising first generation shuttle agent with that of two rationally-designed second generation synthetic peptide shuttle agents. Briefly, RH-30 cells (20,000 cells/well in 96-well dish) were contacted with a delivery mix of 6 μM of a PMO-FITC and increasing concentrations of the first-generation shuttle agent His-CM18-PTD4 or two CPD-lacking second generation synthetic peptide shuttle agents (FSD250 and FSD10) for 2 minutes in RPMI. Cells were washed, incubated in complete medium and then collected for analysis by flow cytometry after 1 h. […]

Another series has as its system RH-30 cells. As to the kind of experiment: in vitro. The note with it: 6 μM PMO-FITC, increasing shuttle concentrations, 2 minutes. As to the method:
as §1, §2

For series [2], the system named is HeLa cells. As to the kind of experiment: Propidium iodide (PI) transduction screening in HeLa cells. The note with it: negative control peptide tested in parallel; data not shown. As for the experimental part: HeLa cells were plated (20 000 cells/well) in a 96 well-dish the day prior to the experiment. Each delivery mix comprising a synthetic peptide shuttle agent (10 μM) and the propidium iodide (PI) (10 μg/mL) or the GFP-NLS (10 μM) were prepared and completed to 50 μL with phosphate-buffered saline (PBS) for PI or with RPMI-1640 medium for GFP-NLS. Cells were washed once and the shuttle agent/PI or shuttle agent/GFP-NLS added on cells for one minute (PI) or 5 minutes (GFP-NLS). Then 100 μL DMEM containing 10% FBS was added to the mix and removed. Cells were washed once with PBS and incubated in DMEM containing 10% FBS. Cells were analyzed after 2-hour incubation by flow cytometry. Cells were analyzed […]. […]
Due to the large number of peptides screened, negative controls were performed in parallel for each experimental batch and included a “no treatment” (NT) control in which the cells were not exposed to shuttle peptide or cargo, as well as a “cargo alone” control in which cells were exposed to the cargo in the absence of shuttle agent. […] Mean PI or GFP-NLS delivery score was calculated by multiplying the mean fluorescence intensity (of at least duplicate samples) measured for the viable PI+ or GFP+ cells by the mean percentage of viable PI+ or GFP+ cells, divided by 100,000 for GFP delivery or by 10,000 for PI delivery. […]

Series [3] has as its system HeLa cells. As to the kind of experiment: PMO-FITC delivery in HeLa cells, immunofluorescence microscopy (vs Endoporter). The following applies: 10 μM PMO-FITC with shuttle agent, 5-minute incubation in RPMI. As for the experimental part:
A PMO cargo delivery experiment in HeLa cells was performed to directly compare synthetic peptide shuttle agent-mediated PMO transduction with Endoporter-mediated intracellular PMO delivery. For shuttle agent-mediated transduction, HeLa cells were exposed to 10 μM of PMO-FITC in the presence of 2.5, 5, 7.5, or 10 μM of the second-generation shuttle agent FSD396 for 5 minutes in RPMI. For Endoporter-mediated delivery, HeLa cells were exposed to 10 μM of PMO-FITC in the presence of 2.5, 5, 7.5, or 10 μM of the commercially-available Endoporter' peptide (GeneTools, LLC) in growth medium for the manufacturer's recommended minimum incubation time of at least 24 hours. After a washing step, delivery results were compared by observing intracellular PMO-FITC fluorescence via immunofluorescence microscopy and results are shown in FIG. 11.

The next series deals with Gli1 protein. As to the kind of experiment: Gli1 knock-down in DU145 cells, Western blot. The note with it: FITC+ cells vs FITC− cells; 6 μM PMO, 5 μM FSD250, 48 hours. As for the experimental part:
DU145 cells were trypsinized and plated (500 000 cells/well) in a 24 well-dish the day prior to the experiment. […] Cells were washed once with PBS and delivery mixes were added on cells for five minutes. Then, 2 mL of RPMI-1640 containing 10% FBS was added to the mix and removed. Untreated cells were incubated with RPMI-1640 only. Cells were incubated in fresh RPMI-1640 containing 10% FBS. Forty height hours later, medium was removed and cells were washed once with PBS prior to trypsinization. Cells were harvested, collected by centrifugation, washed, and resuspended with PBS. Then, PMO-FITC positive and PMO-FITC negative cells were sorted and collected by virtue of FACS (BD FACS Aria Fusion). FITC-positive and FITC-negative cell samples were collected by centrifugation and resuspended in 50 μL protein extraction RIPA buffer (150 mM NaCl, 1% Nonidet™ P-40, 0.1% SDS, 0.5% Sodium deoxycholate, 25 mM Tris). Total protein concentrations were measured with a BCA protein assay kit. For all conditions, 10 μg of proteins were prepared at a final volume of 40 μL with 4× Laemmeli and RIPA buffer. Protein samples were then heated at 90° C. and separated through an 8% SDS-PAGE gel. Proteins were then transferred over night (25 volts) onto a […] PVDF membrane. Membranes were blocked using a 5% bovine serum albumin, Tris Buffer Saline, 0.1% Tween® 20 solution (5% BSA/TBS-T) for an hour. After blocking, the membrane was incubated for an hour with a 5% BSA/TBS-T solution containing anti alpha-Actinin (D6F6) primary antibody at a 1:1000. Alpha-Actinin protein present in the cell lysates served as loading control. Subsequently, the membranes were incubated over night with a 5% BSA/TBS-T solution containing anti-Gli1 primary antibody diluted 1:500. The membrane was then subjected to a 1-hour incubation at 1:5000 dilution of HRP-conjugated goat anti-rabbit secondary antibody 5% BSA/TBS-T solution. Chemiluminescence detection was performed using Clarity™ Western ECL Substrate and a ChemiDoc™ XRS apparatus. Gli1 and Alpha-Actinin densitometry was assessed using ImageJ™ software. […]
For orientation: Immunoblotting shows a protein as a band on a membrane.

Where a SMILES comes first, the peptide text is derived from it.

What is called viability is the share of living cells, or the viability signal relative to a control. A lower viability goes with more harm to the cells. Regarding `CC(C)C[C@H](NC(=O)[C@H](CCCCN)NC(=O)[C@H](CC(C)C)NC(=O)[C@H](CC(C)C)NC(=O)[C@H](CCCNC(=N)N)NC(=O)[C@H](CO)NC(=O)[C@H](Cc1c[nH]c2ccccc12)NC(=O)[C@H](CC(C)C)NC(=O)[C@H](CCCCN)NC(=O)[C@H](CC(C)C)NC(=O)[C@H](CC(C)C)NC(=O)[C@H](CCCCN)NC(=O)[C@H](Cc1c[nH]c2ccccc12)NC(=O)[C@@H](N)CCCCN)C(=O)N[C@@H](Cc1c[nH]c2ccccc12)C(=O)NCC(=O)NCC(=O)N[C@@H](CO)C(=O)NCC(=O)NCC(=O)NCC(=O)N[C@@H](CO)C(=O)N[C@@H](C)C(=O)N[C@@H](CCCNC(=N)N)C(=O)N[C@@H](C)C(=O)N[C@@H](C)C(=O)N[C@@H](CCCNC(=N)N)C(=O)N[C@@H](CCC(N)=O)C(=O)N[C@@H](C)C(=O)N[C@@H](CCCNC(=N)N)C(=O)O` [FSD250] (H-KWKLLKLWSRLLKLWGGSGGGSARAARQAR-OH), the Cell viability entry with HeLa cells [1] is “remained high”. The same molecule had a viability at 2 min, 5 µM in the series “in vitro” greater than 75%. As to “FSD10: CPD-lacking second generation synthetic peptide shuttle agent (KWKLARAFARAIKKLGGSGGGSYARALRRQARTG; FSD10)”, in the series on RH-30 cells, the “PMO-FITC transduction efficiency compared to His-CM18-PTD4” value is reported as “higher transduction efficiencies”. In the case of “FSD174 Scramble: negative control peptide known to have low or no GFP transduction activity (LGRSGRIKIGGWSALASRARQARGLKIWTQGRL; FSD174 Scramble)”, in the series with HeLa cells [2], the “PI transduction efficiency compared to cargo alone” value is “lower transduction efficiencies for PI”. Turning to “FSD396: second-generation shuttle agent (KLKLAKLLLKALKKLGGSGGGSQAKAQAKQAK; FSD396)”, in the series with HeLa cells [3], the “intracellular delivery of PMO-FITC” value is “robust intracellular delivery”. Regarding “PMO-Wnt1: antisense PMO molecule designed to knock-down expression of the Wnt1 protein (antisense GCAACAGCGCCCAGAGCCCCATG; all phosphorodiamidate morpholino (PMO))”, in the series on Gli1 protein, the Gli1 protein expression entry is recorded as “knocked-down”.
